Experimental data published in US11225505B2, “Antimicrobial polymyxin derivative compounds” (MONASH UNIVERSITY, priority 2015, dated 2022).
Converted amounts (≈) assume the structure as drawn. Where a SMILES comes first, the peptide text is derived from it. Bridges are numbered along the chain shown (N, C = ends). [ ]: non-standard residue; d: D form. The star is where a group is joined. X43 = O=C(c1ccc(-c2ccc(Cl)cc2)cn1)*; X35 = O=C(c1cc(-c2ccc(Cl)cc2)on1)*; X37 = O=C(c1ccc(-c2ccc(Cl)cc2)s1)*; X63 = O=C(c1ccc(C(F)(F)F)nc1Cl)*; X9 = O=C(c1ccnc(C(F)(F)F)c1)*; dNle = CCCC[C@@H](N)C(=O)O; X29 = O=C(c1cc(Cl)ccn1)*; Dab = NCC[C@H](N)C(=O)O; Abu = CC[C@H](N)C(=O)O; Dap = NC[C@H](N)C(=O)O

Assays:
Type in all cases: cell-based
[1] = tested on: Klebsiella pneumoniae Kp BM1; details: Kp BM1
Procedure, shortened: (§1)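 Following CLSI procedure M100-S24, minimum inhibitory concentrations of trifluoroacetate lipopeptides are measured in cation-adjusted Mueller-Hinton medium by broth microdilution, alongside a polymyxin B sulphate control.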

[2] = tested on: Acinetobacter baumannii ATCC 17978; details: ATCC 17978
Procedure, shortened: (§2)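 Values are MICs of the lipopeptide trifluoroacetic acid salts. Dilution series were set up in CAMHB as CLSI M100-S24 specifies.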

[3] = tested on: Pseudomonas aeruginosa ATCC 27853; details: ATCC 27853
Procedure, shortened: as §2

[4] = tested on: Pseudomonas aeruginosa FADDI-PA022; details: FADDI-PA022
Procedure, shortened: as §2

[5] = tested on: Enterobacter cloacae FADDI-EC003; details: FADDI-EC003
Procedure, shortened: as §2

[6] = tested on: Klebsiella pneumoniae FADDI-KP022; details: FADDI-KP022
Procedure, shortened: as §2

[7] = tested on: Pseudomonas aeruginosa FADDI-PA038; details: FADDI-PA038
Procedure, shortened: as §2

[8] = tested on: Enterobacter cloacae FADDI-EC006; details: FADDI-EC006
Procedure, shortened: as §2

[9] = tested on: Klebsiella pneumoniae FADDI-KP032; details: FADDI-KP032
Procedure, shortened: as §2

[10] = tested on: Enterobacter cloacae FADDI-EC001; details: FADDI-EC001
Procedure, shortened: as §1

[11] = tested on: Pseudomonas aeruginosa FADDI-PA01; details: FADDI-
Procedure, shortened: as §2

[12] = tested on: Acinetobacter baumannii FADDI-AB034; details: FADDI-AB034
Procedure, shortened: as §2

[13] = tested on: Acinetobacter baumannii FADDI-AB030; test: microbe, parasite or virus in culture; details: FADDI-AB030
Procedure, shortened: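 Broth microdilution MIC in cation-adjusted Mueller-Hinton broth per CLSI M100-S24; lipopeptides tested as TFA salts. FADDI-AB030 is a multidrug-resistant clinical isolate. Polymyxin B sulphate served as control.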

Structure (SMILES) | Minimum inhibitory concentration [1] | Minimum inhibitory concentration [2] | Minimum inhibitory concentration [3] | Minimum inhibitory concentration [4] | Minimum inhibitory concentration [5] | Minimum inhibitory concentration [6] | Minimum inhibitory concentration [7] | Minimum inhibitory concentration [8] | Minimum inhibitory concentration [9] | Minimum inhibitory concentration [10] | Minimum inhibitory concentration [11] | Minimum inhibitory concentration [12] | Minimum inhibitory concentration [13]
CC[C@@H]1NC(=O)[C@@H](CC(C)C)NC(=O)[C@H](CCN)NC(=O)[C@@H](NC(=O)[C@H](CN)NC(=O)[C@@H](NC(=O)[C@H](CCN)NC(=O)c2cc(-c3ccc(Cl)cc3)on2)[C@@H](C)O)CCNC(=O)[C@H]([C@@H](C)O)NC(=O)[C@H](CCN)NC(=O)[C@H](CCN)NC1=O [Compound 94] (X35-[Dab]T[Dap][Dab][Dab][dL][Abu][Dab][Dab]T; lactam 4-C) | 0.5 µg/mL (≈ 0.419 µM) | 1 µg/mL (≈ 0.838 µM) | 0.5 µg/mL (≈ 0.419 µM) | 0.5 µg/mL (≈ 0.419 µM) | 0.25 µg/mL (≈ 0.21 µM) | <0.125 µg/mL | 1 µg/mL (≈ 0.838 µM) | <0.125 µg/mL | <0.125 µg/mL | 0.25 µg/mL (≈ 0.21 µM) | 0.5 µg/mL (≈ 0.419 µM) | 0.5 µg/mL (≈ 0.419 µM) | 0.25 µg/mL (≈ 0.21 µM)
CC(C)C[C@H]1NC(=O)[C@H](CCN)NC(=O)[C@@H](NC(=O)[C@H](CN)NC(=O)[C@@H](NC(=O)[C@H](CCN)NC(=O)c2cc(Cl)ccn2)[C@@H](C)O)CCNC(=O)[C@H]([C@@H](C)O)NC(=O)[C@H](CCN)NC(=O)[C@H](CCN)NC(=O)[C@H]([C@@H](C)O)NC1=O [Compound 98] (X29-[Dab]T[Dap][Dab][Dab][dL]T[Dab][Dab]T; lactam 4-C) | 0.25 µg/mL (≈ 0.219 µM) | 2 µg/mL (≈ 1.75 µM) | 0.25 µg/mL (≈ 0.219 µM) | 0.25 µg/mL (≈ 0.219 µM) | <0.125 µg/mL | <0.125 µg/mL | 8 µg/mL (≈ 7 µM) | 0.5 µg/mL (≈ 0.438 µM) | 0.25 µg/mL (≈ 0.219 µM) | <0.125 µg/mL | 0.25 µg/mL (≈ 0.219 µM) | 2 µg/mL (≈ 1.75 µM) | 1 µg/mL (≈ 0.875 µM)
CC(C)C[C@H]1NC(=O)[C@H](CCN)NC(=O)[C@@H](NC(=O)[C@H](CN)NC(=O)[C@@H](NC(=O)[C@H](CCN)NC(=O)c2ccc(-c3ccc(Cl)cc3)cn2)[C@@H](C)O)CCNC(=O)[C@H]([C@@H](C)O)NC(=O)[C@H](CCN)NC(=O)[C@H](CCN)NC(=O)[C@H]([C@@H](C)O)NC1=O [Compound 15] (X43-[Dab]T[Dap][Dab][Dab][dL]T[Dab][Dab]T; lactam 4-C) | 0.5 µg/mL (≈ 0.41 µM) | 0.5 µg/mL (≈ 0.41 µM) | 1 µg/mL (≈ 0.82 µM) | 2 µg/mL (≈ 1.64 µM) | <0.125 µg/mL | <0.125 µg/mL | 1 µg/mL (≈ 0.82 µM) | 0.25 µg/mL (≈ 0.205 µM) | 0.25 µg/mL (≈ 0.205 µM) | 0.25 µg/mL (≈ 0.205 µM) | 2 µg/mL (≈ 1.64 µM) | 0.5 µg/mL (≈ 0.41 µM) | 1 µg/mL (≈ 0.82 µM)
CC[C@@H]1NC(=O)[C@@H](CC(C)C)NC(=O)[C@H](CCN)NC(=O)[C@@H](NC(=O)[C@H](CN)NC(=O)[C@@H](NC(=O)[C@H](CCN)NC(=O)c2ccc(C(F)(F)F)nc2Cl)[C@@H](C)O)CCNC(=O)[C@H]([C@@H](C)O)NC(=O)[C@H](CCN)NC(=O)[C@H](CCN)NC1=O [Compound 40] (X63-[Dab]T[Dap][Dab][Dab][dL][Abu][Dab][Dab]T; lactam 4-C) | <0.125 µg/mL | 0.5 µg/mL (≈ 0.419 µM) | 0.5 µg/mL (≈ 0.419 µM) | 0.5 µg/mL (≈ 0.419 µM) | <0.125 µg/mL | <0.125 µg/mL | 1 µg/mL (≈ 0.837 µM) | <0.125 µg/mL | <0.125 µg/mL | <0.125 µg/mL | 0.5 µg/mL (≈ 0.419 µM) | <0.125 µg/mL | <0.125 µg/mL
CC(C)C[C@H]1NC(=O)[C@H](CCN)NC(=O)[C@@H](NC(=O)[C@H](CN)NC(=O)[C@@H](NC(=O)[C@H](CCN)NC(=O)c2ccnc(C(F)(F)F)c2)[C@@H](C)O)CCNC(=O)[C@H]([C@@H](C)O)NC(=O)[C@H](CCN)NC(=O)[C@H](CCN)NC(=O)[C@H]([C@@H](C)O)NC1=O [Compound 32] (X9-[Dab]T[Dap][Dab][Dab][dL]T[Dab][Dab]T; lactam 4-C; N-terminus assumed) | 1 µg/mL (≈ 0.85 µM) | 4 µg/mL (≈ 3.4 µM) | 0.5 µg/mL (≈ 0.425 µM) | 0.5 µg/mL (≈ 0.425 µM) | 0.5 µg/mL (≈ 0.425 µM) | <0.125 µg/mL | 0.5 µg/mL (≈ 0.425 µM) | 1 µg/mL (≈ 0.85 µM) | 0.25 µg/mL (≈ 0.213 µM) | 1 µg/mL (≈ 0.85 µM) | 1 µg/mL (≈ 0.85 µM) | 2 µg/mL (≈ 1.7 µM) | 1 µg/mL (≈ 0.85 µM)
CCCC[C@H]1NC(=O)[C@H](CCN)NC(=O)[C@@H](NC(=O)[C@H](CN)NC(=O)[C@@H](NC(=O)[C@H](CCN)NC(=O)c2cc(Cl)ccn2)[C@@H](C)O)CCNC(=O)[C@H]([C@@H](C)O)NC(=O)[C@H](CCN)NC(=O)[C@H](CCN)NC(=O)[C@H](CC)NC1=O [Compound 95] (X29-[Dab]T[Dap][Dab][Dab][dNle][Abu][Dab][Dab]T; lactam 4-C) | 0.5 µg/mL (≈ 0.444 µM) | 0.25 µg/mL (≈ 0.222 µM) | 0.25 µg/mL (≈ 0.222 µM) | 0.25 µg/mL (≈ 0.222 µM) | 0.25 µg/mL (≈ 0.222 µM) | 0.25 µg/mL (≈ 0.222 µM) | 1 µg/mL (≈ 0.888 µM) | <0.125 µg/mL | <0.125 µg/mL | <0.125 µg/mL | <0.125 µg/mL | 0.25 µg/mL (≈ 0.222 µM) | 0.25 µg/mL (≈ 0.222 µM)
CC(C)C[C@H]1NC(=O)[C@H](CCN)NC(=O)[C@@H](NC(=O)[C@H](CN)NC(=O)[C@@H](NC(=O)[C@H](CCN)NC(=O)c2ccc(-c3ccc(Cl)cc3)s2)[C@@H](C)O)CCNC(=O)[C@H]([C@@H](C)O)NC(=O)[C@H](CCN)NC(=O)[C@H](CCN)NC(=O)[C@H]([C@@H](C)O)NC1=O [Compound 17] (X37-[Dab]T[Dap][Dab][Dab][dL]T[Dab][Dab]T; lactam 4-C) | 0.5 µg/mL (≈ 0.409 µM) | 2 µg/mL (≈ 1.63 µM) | 1 µg/mL (≈ 0.817 µM) | 1 µg/mL (≈ 0.817 µM) | 1 µg/mL (≈ 0.817 µM) | <0.125 µg/mL | 1 µg/mL (≈ 0.817 µM) | 0.5 µg/mL (≈ 0.409 µM) | 0.5 µg/mL (≈ 0.409 µM) | 0.25 µg/mL (≈ 0.204 µM) | 0.5 µg/mL (≈ 0.409 µM) | 1 µg/mL (≈ 0.817 µM) | 0.25 µg/mL (≈ 0.204 µM)
